Consider 23 molecules from US10093683B2, “Factor XIa inhibitors” (Merck Sharp & Dohme Corp., priority 2014, dated 2018).

Where two headings read alike, the source gives them in different places.

In assay [1] the target is Human plasma kallikrein (Homo sapiens (Human), UniProt P03952). Put plainly: Kallikrein Assay. Type of assay: biochemical. The note with it: purified Human plasma kallikrein 0.5 nM, Acetyl-K-P-R-AFC, pH 7.4; Ki from IC50 by Cheng Prusoff. Here is the method:
The effectiveness of a compound of the present invention as an inhibitor of Kallikrein can be determined using a relevant purified serine protease, and an appropriate synthetic substrate. The rate of hydrolysis of the chromogenic or fluorogenic substrate by the relevant serine protease was measured both in the absence and presence of compounds of the present invention. Assays were conducted at room temperature or at 37° C. […] A decrease in the rate of fluorescence change in the presence of inhibitor is indicative of enzyme inhibition. Such methods are known to one skilled in the art. The results of this assay are expressed as the inhibitory constant, Ki.
Kallikrein determinations were made in 50 mM HEPES buffer at pH 7.4 containing 150 mM NaCl, 5 mM CaCl2, and 0.1% PEG 8000 (polyethylene glycol; Fisher Scientific). Determinations were made using purified Human plasma kallikrein at a final concentration of 0.5 nM (Enzyme Research Laboratories) and the synthetic substrate, Acetyl-K-P-R-AFC (Sigma #C6608) at a concentration of […].
Times required to achieve equilibration between enzyme and inhibitor were determined in control experiments. The reactions were performed under linear progress curve conditions and fluorescence increase measured at 405 Ex/510 Em nm. […] IC50 was determined by inflection point from a four parameter logistic curve fit. Ki was calculated using the Cheng Prusoff equation, Ki=IC50/(1+([S]/Km)).

The target in assay [2] is human Factor XIa (Homo sapiens (Human), UniProt P03951). As to the kind of experiment: Factor XIa Assay. Type of assay: biochemical. The note with it: read-out: FXIa Ki. Put shortly:
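Purified human FXIa (40 pM final) hydrolysing fluorogenic Z-Gly-Pro-Arg-AFC (100 μM) in 50 mM HEPES pH 7.4, 150 mM NaCl, 5 mM CaCl2, 0.1% PEG 8000, at room temperature or 37° C. Initial velocities measured after enzyme–inhibitor equilibration; Ki from Vo/Vi versus [I], assuming competitive inhibition.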

Where [3] appears, read: purified human Factor XIa 40 pM, Z-Gly-Pro-Arg-AFC 100 μM, pH 7.4.

For orientation: Ki means the dissociation constant of the complex between target and ligand, obtained from inhibition or displacement.

Chain of human Factor XIa (P03951 388-625): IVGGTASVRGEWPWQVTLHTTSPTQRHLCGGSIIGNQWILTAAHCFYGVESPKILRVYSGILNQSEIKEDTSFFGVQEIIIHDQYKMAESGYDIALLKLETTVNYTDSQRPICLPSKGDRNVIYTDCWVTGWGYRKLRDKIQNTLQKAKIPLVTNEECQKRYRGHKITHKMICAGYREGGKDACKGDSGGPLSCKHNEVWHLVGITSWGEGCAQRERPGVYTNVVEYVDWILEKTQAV
Chain of human Factor XIa (P03951 19-387 partner): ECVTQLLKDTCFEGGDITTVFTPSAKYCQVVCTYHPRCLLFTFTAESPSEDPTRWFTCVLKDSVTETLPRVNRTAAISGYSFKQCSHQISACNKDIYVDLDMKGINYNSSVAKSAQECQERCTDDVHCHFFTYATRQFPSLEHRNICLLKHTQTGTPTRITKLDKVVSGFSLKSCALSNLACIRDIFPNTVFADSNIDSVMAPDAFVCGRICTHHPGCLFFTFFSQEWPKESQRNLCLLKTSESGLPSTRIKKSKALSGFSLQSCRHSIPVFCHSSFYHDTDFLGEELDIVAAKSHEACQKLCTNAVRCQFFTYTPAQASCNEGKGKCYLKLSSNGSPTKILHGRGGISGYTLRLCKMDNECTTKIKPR
Chain of Human plasma kallikrein (P03952 391-638): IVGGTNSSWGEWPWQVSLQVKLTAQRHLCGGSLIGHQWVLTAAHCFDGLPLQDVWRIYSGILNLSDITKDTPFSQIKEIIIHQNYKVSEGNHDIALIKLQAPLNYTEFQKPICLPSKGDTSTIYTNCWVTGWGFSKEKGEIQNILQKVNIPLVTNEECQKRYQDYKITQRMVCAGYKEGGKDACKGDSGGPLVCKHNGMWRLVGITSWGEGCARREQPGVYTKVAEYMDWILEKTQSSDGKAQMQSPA
Chain of Human plasma kallikrein (P03952 20-390 partner): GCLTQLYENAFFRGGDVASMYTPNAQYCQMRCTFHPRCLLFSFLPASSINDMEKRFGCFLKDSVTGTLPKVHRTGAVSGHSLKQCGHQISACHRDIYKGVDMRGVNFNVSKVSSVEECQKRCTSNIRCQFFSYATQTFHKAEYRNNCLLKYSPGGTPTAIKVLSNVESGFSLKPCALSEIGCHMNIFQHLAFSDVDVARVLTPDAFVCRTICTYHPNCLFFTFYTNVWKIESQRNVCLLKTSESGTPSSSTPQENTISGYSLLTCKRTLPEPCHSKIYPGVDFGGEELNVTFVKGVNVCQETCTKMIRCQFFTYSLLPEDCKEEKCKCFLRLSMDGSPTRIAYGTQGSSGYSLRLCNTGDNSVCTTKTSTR

In the case of `COC(=O)Nc1ccc(C(=O)N[C@@H](CC(C)(C)OC)C(=O)N2CCC[C@@]3(C2)OC(=O)Nc2ccc(Cl)c(F)c23)cc1` [Example 119, methyl (4-(((2S)-1-(6-chloro-5-fluoro-2-oxo-1,2-dihydrospiro[benzo[d][1,3]oxazine-4,3′-piperidin]-1′-yl)-4-methoxy-4-methyl-1-oxopentan-2-yl)carbamoyl)phenyl)carbamate], the Ki was determined as 4.92 nM in assay [1] and 10.2 nM in assay [2] (setting [3]).
The matching figures for `COC(=O)Nc1ccc(C(=O)N[C@@H](CC(=O)N2CC[C@@H](OC)C2)C(=O)N2CCC[C@@]3(C2)OC(=O)Nc2ccc(Cl)cc23)cc1` [Example 101, methyl (4-(((S)-1-((R)-6-chloro-2-oxo-1,2-dihydrospiro[benzo[d][1,3]oxazine-4,3′-piperidin]-1′-yl)-4-((R)-3-methoxypyrrolidin-1-yl)-1,4-dioxobutan-2-yl)carbamoyl)phenyl)carbamate]: 10.3 nM and 36.4 nM.
For the molecule `CNc1cc(C(=O)N[C@@H](Cc2ccccc2)C(=O)N2CCC[C@@]3(C2)OC(=O)Nc2ccc(Cl)cc23)ccn1` [Example 206], the Ki in assay [1] came out at 1.7 nM; in assay [2], 14.5 nM.
As for `COC(=O)Nc1ccc(C(=O)N[C@@H](Cc2ccc(OC3CCCC3)cc2)C(=O)N2CCC3(C2)OC(=O)Nc2ccc(Cl)cc23)cc1` (stereo partly drawn) [Example 44, methyl (4-(((2S)-1-(6-chloro-2-oxo-1,2-dihydrospiro[benzo[d][1,3]oxazine-4,3′-pyrrolidin]-1′-yl)-3-(4-(cyclopentyloxy)phenyl)-1-oxopropan-2-yl)carbamoyl)phenyl)carbamate], the Ki was less than 1.3 nM in assay [1] and 70 nM in assay [2] (setting [3]).
Turning to `Cc1cc2cc(C(=O)N[C@@H](Cc3ccccc3)C(=O)N3CCC[C@@]4(C3)OC(=O)Nc3ccc(Cl)cc34)ccc2[nH]1` [Example 250], the Ki in assay [1] came out at 13.3 nM; in assay [2], 41.9 nM.
Consider `COC(=O)Nc1ccc(C(=O)N[C@@H](CCF)C(=O)N2CCC[C@@]3(C2)OC(=O)Nc2ccc(Cl)c(F)c23)cc1` [Example 105, methyl (4-(((S)-1-((R)-6-chloro-5-fluoro-2-oxo-1,2-dihydrospiro[benzo[d][1,3]oxazine-4,3′-piperidin]-1′-yl)-4-fluoro-1-oxobutan-2-yl)carbamoyl)phenyl)carbamate], for which the Ki is 3.04 nM in assay [1] and 9.99 nM in assay [2] (setting [3]).
Consider `Nc1cc(C(=O)N[C@@H](Cc2ccccc2)C(=O)N2CCC3(C2)OC(=O)Nc2ccc(Cl)cc23)cc2[nH]cnc12` (stereo partly shown) [Example 260], for which the results for the Ki in assay [1] and in assay [2] were 130 nM and 77.9 nM, respectively.
Consider `COC(=O)Nc1ccc(C(=O)N[C@@H](CC2CC2(F)F)C(=O)N2CCC[C@@]3(C2)OC(=O)Nc2ccc(Cl)c(F)c23)cc1` (single isomer, unassigned) [Example 67A], for which the Ki in assay [1] was determined as 2.9 nM; in assay [2] (setting [3]) it was 11.6 nM.
Take `COC(=O)Nc1cnc(C(=O)N[C@@H](Cc2ccccc2)C(=O)N2CCC[C@@]3(C2)OC(=O)Nc2ccc(Cl)c(F)c23)nc1` [Example 234]: the Ki in assay [1] is 3.03 nM; in assay [2], 16.9 nM.
In the case of `COC(=O)Nc1ccc(C(=O)N[C@@H](Cc2ccccc2)C(=O)N2CCC[C@@]3(C2)OC(=O)Nc2ccc(F)cc23)cc1` [Example 8a, methyl (4-(((S)-1-((R)-6-fluoro-2-oxo-1,2-dihydrospiro[benzo[d][1,3]oxazine-4,3′-piperidin]-1′-yl)-1-oxo-3-phenylpropan-2-yl)carbamoyl)phenyl)carbamate], the figures for the Ki in assay [1] and in assay [2] (setting [3]) were 9.78 nM and 12.8 nM, respectively.
On the same counts, the results for `COC(=O)Nc1ccc(C(=O)N[C@@H](Cc2ccc(F)c(F)c2)C(=O)N2CCC3(C2)OC(=O)Nc2ccc(Cl)cc23)cc1` (stereo partly drawn) [Example 27, methyl (4-(((2S)-1-(6-chloro-2-oxo-1,2-dihydrospiro[benzo[d][1,3]oxazine-4,3′-pyrrolidin]-1′-yl)-3-(3,4-difluorophenyl)-1-oxopropan-2-yl)carbamoyl)phenyl)carbamate] are 32.6 nM and 14.3 nM.
For the molecule `COC(=O)Nc1ccc(C(=O)N[C@@H](Cc2ccccc2)C(=O)N2CC[C@@]3(C2)OC(=O)Nc2ccc(C)cc23)cc1` [Example 14b, methyl (4-(((S)-1-((R)-6-methyl-2-oxo-1,2-dihydrospiro[benzo[d][1,3]oxazine-4,3′-pyrrolidin]-1′-yl)-1-oxo-3-phenylpropan-2-yl)carbamoyl)phenyl)carbamate], the inhibition constant (Ki) is 47.8 nM in assay [1] and 9.5 nM in assay [2] (setting [3]).
With `O=C1CSc2cc(C(=O)N[C@@H](Cc3ccccc3)C(=O)N3CCC4(C3)OC(=O)Nc3ccc(Cl)cc34)ccc2N1` (stereo partly shown) [Example 165], the Ki was determined as 27.5 nM in assay [1] and 14.6 nM in assay [2].
On to `Nc1n[nH]c2cc(C(=O)N[C@@H](CC3CC3)C(=O)N3CCC[C@@]4(C3)OC(=O)Nc3ccc(Cl)cc34)ccc12` [Example 200], for which the Ki in assay [1] was 1 nM; in assay [2], 4.4 nM.
On the same counts, the results for `Nc1n[nH]c2cc(C(=O)N[C@@H](CC3CC3)C(=O)N3CCC[C@@]4(C3)OC(=O)Nc3ccc(Cl)c(F)c34)ccc12` [Example 254] are 0.83 nM and 2.11 nM.
Regarding `COC(=O)Nc1ccc(C(=O)N[C@@H](Cc2ccc(-c3cc(C(F)(F)F)nn3C)cc2)C(=O)N2CC[C@@]3(C2)OC(=O)Nc2ccc(Cl)cc23)cc1` [Example 81, methyl (4-(((S)-1-((R)-6-chloro-2-oxo-1,2-dihydrospiro[benzo[d][1,3]oxazine-4,3′-pyrrolidin]-1′-yl)-3-(4-(1-methyl-3-(trifluoromethyl)-1H-pyrazol-5-yl)phenyl)-1-oxopropan-2-yl)carbamoyl)phenyl)carbamate], the Ki in assay [1] came to 7.98 nM; in assay [2] (setting [3]) it was 29.9 nM.
For the molecule `COC(=O)Nc1ccc(C(=O)N[C@@H](Cc2cscn2)C(=O)N2CCC[C@@]3(C2)OC(=O)Nc2ccc(Cl)cc23)cc1` [Example 58, methyl (4-(((S)-1-((R)-6-chloro-2-oxo-1,2-dihydrospiro[benzo[d][1,3]oxazine-4,3′-piperidin]-1′-yl)-1-oxo-3-(thiazol-4-yl)propan-2-yl)carbamoyl)phenyl)carbamate], the values for the Ki in assay [1] and in assay [2] (setting [3]) were less than 1.36 nM and 4.04 nM, respectively.
On to `O=C1Nc2ccc(Cl)c(F)c2[C@@]2(CCCN(C(=O)[C@H](Cc3ccc(F)cc3)NC(=O)c3cc(F)c(C(=O)C(=O)O)s3)C2)O1` [Example 267, 2-(5-(((S)-1-((R)-6-chloro-5-fluoro-2-oxo-1,2-dihydrospiro[benzo[d][1,3]oxazine-4,3′-piperidin]-1′-yl)-3-(4-fluorophenyl)-1-oxopropan-2-yl)carbamoyl)-3-fluorothiophen-2-yl)-2-oxoacetic acid], for which the Ki in assay [1] was 0.29 nM; in assay [2] it was 0.7 nM.
Consider `O=C1Nc2ccc(Cl)c(F)c2[C@@]2(CCCN(C(=O)[C@H](Cc3ccccc3)NC(=O)c3ccc(-c4ncc[nH]4)s3)C2)O1` [Example 235], for which the Ki in assay [1] was 0.87 nM; in assay [2], 1.26 nM.
Take `COC(=O)Nc1ccc(C(=O)N[C@@H](Cc2cncn2C)C(=O)N2CCC3(C2)OC(=O)Nc2ccc(Cl)cc23)cc1` (stereo partly drawn) [Example 30, methyl (4-(((2S)-1-(6-chloro-2-oxo-1,2-dihydrospiro[benzo[d][1,3]oxazine-4,3′-pyrrolidin]-1′-yl)-3-(1-methyl-1H-imidazol-5-yl)-1-oxopropan-2-yl)carbamoyl)phenyl)carbamate]: the Ki in assay [1] turned out to be 37 nM; in assay [2] (setting [3]), 17.6 nM.
For the molecule `O=C1Nc2ccc(Cl)c(F)c2[C@@]2(CCCN(C(=O)[C@H](Cc3ccccc3)NC(=O)c3ccc4[nH]c(=O)cc(O)c4c3)C2)O1` [Example 209], the Ki in assay [1] is 0.33 nM; in assay [2], 0.11 nM.
On the same counts, the results for `COC(=O)Nc1n[nH]c2cc(C(=O)N[C@@H](Cc3ccccc3)C(=O)N3CC[C@@]4(C3)OC(=O)Nc3ccc(Cl)cc34)ccc12` [Example 227, methyl (6-(((S)-1-((R)-6-chloro-2-oxo-1,2-dihydrospiro[benzo[d][1,3]oxazine-4,3′-pyrrolidin]-1′-yl)-1-oxo-3-phenylpropan-2-yl)carbamoyl)-1H-indazol-3-yl)carbamate] are 5 nM and 9 nM.
The matching figures for `Nc1ccc(C(=O)N[C@@H](Cc2ccc(F)cc2)C(=O)N2CCC[C@@]3(C2)OC(=O)Nc2ccc(Cl)cc23)cc1C(=O)O` [Example 208, 2-amino-5-(((S)-1-((R)-6-chloro-2-oxo-1,2-dihydrospiro[benzo[d][1,3]oxazine-4,3′-piperidin]-1′-yl)-3-(4-fluorophenyl)-1-oxopropan-2-yl)carbamoyl)benzoic acid]: 1.95 nM and 1.63 nM.
